Values of other authors as cited in patent publication US6767992B1 (PTC Pharma AG, priority 2001, dated 2004).

Test system: RPMI 8322 melanoma cells

L-prolyl-L-m-sarcolysyl-L-p-fluorophenylalanine [PSF]
times more toxic than m-sarcolysine (relative to m-sarcolysine): 28 times | times more toxic than melphalan (relative to melphalan): 35 times
